From patent US10266526B2, “Substituted 1,2,3-triazoles as SMYD inhibitors for treating cancer” (EPIZYME, INC., priority 2014, dated 2019)
pIC50: −log10 of the molar value.

target: SMYD3 (Homo sapiens (Human), UniProt Q9H7B4); assay: SMYD3 biochemical assay (SMYD3 enzyme assay on MEKK2 protein substrate, 3H-SAM scintillation proximity assay); settings: Table 1A; average of n = 1 to n = 50; read-out: SMYD3 Biochem IC50
Description: S-adenosylmethionine (SAM), S-adenosylhomocysteine (SAH), Tris, Tween20, dimethylsulfoxide (DMSO), bovine skin gelatin (BSG), and Tris(2-carboxyethyl)phosphine hydrochloride solution (TCEP) were purchased from Sigma-Aldrich at the highest level of purity possible. ^3H-SAM was purchase from American Radiolabeled Chemicals with a specific activity of 80 Ci/mmol. 384-well opaque white OptiPlates and SPA beads (Perkin Elmer, catalog # RPNQ0013) were purchased from PerkinElmer.
N-terminally GST-tagged MEKK2 (MAP3K2) protein corresponding to reference sequence AAF63496.3 was purchased from Life Technologies (catalog # PV4010). This protein was expressed in High Five insect cells and purified to >85% purity. Protein identity was confirmed by MS/MS analysis after proteolytic digestion. The protein sequence used was:
Full-length human SMYD3 isoform 1 (BAB86333) was inserted into a modified pET21b plasmid containing a His6 tag and TEV and SUMO cleavage sites.
E. coli (BL21 codonplus RIL strain, Stratagene) were transformed with plasmid pEPZ553 by mixing competent cells and plasmid DNA and incubating on ice for 30 minutes followed by heat shock at 42° C. for 1 minute and cooling on ice for 2 minutes. Transformed cells were grown and selected on LB agar with 100 μg/mL ampicillin and 17 μg/mL chloramphenicol at 37° C. overnight. A single clone was used to inoculate 200 mL of LB medium with 100 μg/mL ampicillin and 17 μg/mL chloramphenicol and incubated at 37° C. on an orbital shaker at 180 rpm. Once in log growth, the culture was diluted 1:100 into 2 L of LB medium and grown until OD600 was about 0.3 after which the culture was incubated at 15° C. and 160 rpm. Once OD600 reached about 0.4, IPTG was added to a final concentration of 0.1 mM and the cells were grown overnight at 15° C. and 160 rpm. Cells were harvested by centrifugation at 8000 rpm, for 4 minutes at 4° C. and stored at −80° C. for purification.
The column was washed with Buffer B (Buffer A plus 20 mM imidazole) and His-tagged SMYD3 was eluted with Buffer C (Buffer A plus 300 mM imidazole). The His tag, TEV and SUMO cleavage sites were removed generating native SMYD3 by addition of ULP1 protein at a ratio of 1:200 (ULP1:SMYD3). Imidazole was removed by dialysis overnight in Buffer A. The dialyzed solution was applied to a second Nickel column and the native SMYD3 protein was collected from the column flow-through. The flow-through was dialyzed in Buffer D (25 mM Tris, 5% glycerol, 5 mM β-mercaptoethanol, 50 mM NaCl, pH7.8) and ULP1 was removed using a Q sepharose fast flow column.
General Procedure for SMYD3 Enzyme Assays on MEKK2 Protein Substrate
The assays were all performed in a buffer consisting of 25 mM Tris-Cl pH 8.0, 1 mM TCEP, 0.005% BSG, and 0.005% Tween 20, prepared on the day of use. […] DMSO (1 ul) was added to Columns 11, 12, 23, 24, rows A-H for the maximum signal control and 1 ul of SAH, a known product and inhibitor of SMYD3, was added to columns 11, 12, 23, 24, rows I-P for the minimum signal control. A cocktail (40 ul) containing the SMYD3 enzyme was added by Multidrop Combi (Thermo-Fisher). The compounds were allowed to incubate with SMYD3 for 30 min at room temperature, then a cocktail (10 ul) containing SAM and MEKK2 was added to initiate the reaction (final volume=51 ul). […] The assays were stopped by the addition of non-radiolabeled SAM (10 ul) to a final concentration of 100 uM, which dilutes the ^3H-SAM to a level where its incorporation into MEKK2 is no longer detectable. Radiolabeled MEKK2 was detected using a scintillation proximity assay (SPA). 10 uL of a 10 mg/mL solution of SPA beads in 0.5 M citric acid was added and the plates centrifuged at 600 rpm for 1 min to precipitate the radiolabeled MEKK2 onto the SPA beads.

SMYD3, sequence (Q9H7B4 whole entry): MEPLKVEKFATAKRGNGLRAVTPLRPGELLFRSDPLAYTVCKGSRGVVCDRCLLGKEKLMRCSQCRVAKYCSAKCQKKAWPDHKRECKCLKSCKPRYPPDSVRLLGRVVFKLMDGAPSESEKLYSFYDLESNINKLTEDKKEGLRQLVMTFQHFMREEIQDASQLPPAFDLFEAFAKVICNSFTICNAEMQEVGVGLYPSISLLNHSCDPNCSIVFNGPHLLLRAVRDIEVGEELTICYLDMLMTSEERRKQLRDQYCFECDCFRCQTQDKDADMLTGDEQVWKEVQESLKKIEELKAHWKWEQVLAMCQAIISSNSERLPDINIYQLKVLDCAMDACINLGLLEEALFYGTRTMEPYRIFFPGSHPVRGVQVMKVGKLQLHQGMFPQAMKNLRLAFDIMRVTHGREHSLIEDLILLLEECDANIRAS

**Q.** How did the pIC50 turn out when N[C@H]1CC[C@H](NC(=O)c2cc3cc(Br)ccc3nc2O)CC1 [compound 565, N-((1r,4r)-4-aminocyclohexyl)-6-bromo-2-hydroxyquinoline-3-carboxamide] was run?
**A.** < 5.00

**Q.** N[C@H]1CC[C@H](NC(=O)c2nc(I)n[nH]2)CC1 [compound 548, N-((1r,4r)-4-aminocyclohexyl)-3-iodo-1H-1,2,4-triazole-5-carboxamide] was tested. Which pIC50 did it give?
**A.** < 4.30

**Q.** How did the pIC50 turn out when CN(C(=O)c1ncn[nH]1)[C@H]1CC[C@H](N)CC1 [compound 561, N-((1r,4r)-4-aminocyclohexyl)-N-methyl-1H-1,2,4-triazole-5-carboxamide] was run?
**A.** < 5.00

**Q.** Cc1nc(C(=O)N[C@H]2CC[C@H](N)CC2)n[nH]1 [compound 550, N-((1r,4r)-4-aminocyclohexyl)-5-methyl-1H-1,2,4-triazole-3-carboxamide] was tested. Which pIC50 did it give?
**A.** 4.83

same assay, conditions: read-out: SMYD3 Biochem IC50

**Q.** How did the pIC50 turn out when Cc1nn(C(C)C(=O)NC(C)C2CCN(C(=O)[C@H](C)N)CC2)c(C)c1Br (stereo partly drawn) [compound 216, N-(1-(1-(L-alanyl)piperidin-4-yl)ethyl)-2-(4-bromo-3,5-dimethyl-1H-pyrazol-1-yl)propanamide] was run?
**A.** < 4.00

**Q.** How did the pIC50 turn out when NCCC(=O)N[C@H]1CC[C@H](NC(=O)c2ccc(N)nc2)CC1 [compound 388, 6-amino-N-((1r,4r)-4-(3-aminopropanamido)cyclohexyl)nicotinamide] was run?
**A.** < 4.00

**Q.** With NCCC(=O)N[C@H]1CC[C@H](NC(=O)Cc2cccc(C(F)(F)F)c2)CC1 [compound 477, 3-amino-N-((1r,4r)-4-(2-(3-(trifluoromethyl)phenyl)acetamido)cyclohexyl)propanamide] as the molecule, how does the pIC50 read?
**A.** 4.64

**Q.** How did the pIC50 turn out when N[C@H]1CC[C@H](NC(=O)c2cc(=O)c3ccccc3o2)CC1 [compound 277, N-((1r,4r)-4-aminocyclohexyl)-4-oxo-4H-chromene-2-carboxamide] was run?
**A.** < 4.00

**Q.** With CC1=NN(c2ccc(C(=O)N[C@H]3CC[C@H](NC(=O)CCN)CC3)cc2)C(=O)C1 [compound 432, N-((1r,4r)-4-(3-aminopropanamido)cyclohexyl)-4-(3-methyl-5-oxo-4,5-dihydro-1H-pyrazol-1-yl)benzamide] as the molecule, how does the pIC50 read?
**A.** 4.43

**Q.** How did the pIC50 turn out when CC(NC(=O)c1ccc(O)nc1)C1CCN(C(=O)[C@H](C)N)CC1 (stereo partly drawn) [compound 378, N-(1-(1-(L-alanyl)piperidin-4-yl)ethyl)-6-hydroxynicotinamide] was run?
**A.** < 4.00

**Q.** How did the pIC50 turn out when Cc1cc(C)c(C(=O)N[C@H]2CC[C@H](NC(=O)CCN)CC2)c(=O)[nH]1 [compound 402, N-((1r,4r)-4-(3-aminopropanamido)cyclohexyl)-4,6-dimethyl-2-oxo-1,2-dihydropyridine-3-carboxamide] was run?
**A.** < 4.00

**Q.** With Cc1cncc(C(=O)N[C@H]2CC[C@H](N)CC2)c1 [compound 345, N-((1r,4r)-4-aminocyclohexyl)-5-methylnicotinamide] as the molecule, how does the pIC50 read?
**A.** 4.30

**Q.** How did the pIC50 turn out when NCCC(=O)N[C@H]1CC[C@H](NC(=O)Cn2ccnc2)CC1 [compound 366, N-((1r,4r)-4-(2-(1H-imidazol-1-yl)acetamido)cyclohexyl)-3-aminopropanamide] was run?
**A.** < 4.00

**Q.** With Nc1ccncc1C(=O)N[C@H]1CC[C@H](N)CC1 [compound 289, 4-amino-N-((1r,4r)-4-aminocyclohexyl)nicotinamide] as the molecule, how does the pIC50 read?
**A.** < 4.00

**Q.** How did the pIC50 turn out when Cn1c(C(=O)N[C@H]2CC[C@H](N)CC2)cc2ccccc21 [compound 246, N-((1r,4r)-4-aminocyclohexyl)-1-methyl-1H-indole-2-carboxamide] was run?
**A.** < 4.00

**Q.** N[C@H]1CC[C@H](NC(=O)c2cc3ccccc3nc2O)CC1 [compound 475, N-((1r,4r)-4-aminocyclohexyl)-2-hydroxyquinoline-3-carboxamide] was tested. Which pIC50 did it give?
**A.** 4.65

**Q.** CC(NC(=O)c1cncnc1N)C1CCN(C(=O)[C@H](C)N)CC1 (stereo partly drawn) [compound 419, N-(1-(1-(L-alanyl)piperidin-4-yl)ethyl)-4-aminopyrimidine-5-carboxamide] was tested. Which pIC50 did it give?
**A.** < 4.00

**Q.** CC(NC(=O)c1ccn(C)n1)C1CCN(C(=O)[C@H](C)N)CC1 (stereo partly drawn) [compound 259, N-(1-(1-(L-alanyl)piperidin-4-yl)ethyl)-1-methyl-1H-pyrazole-3-carboxamide] was tested. Which pIC50 did it give?
**A.** < 4.00

**Q.** With CC(NC(=O)c1nc2ccc(F)cc2s1)C1CCN(C(=O)[C@H](C)N)CC1 (stereo partly drawn) [compound 498, N-(1-(1-(L-alanyl)piperidin-4-yl)ethyl)-6-fluorobenzo[d]thiazole-2-carboxamide] as the molecule, how does the pIC50 read?
**A.** 4.29

**Q.** With N[C@H]1CC[C@H](NC(=O)c2cn3ncccc3n2)CC1 [compound 447, N-((1r,4r)-4-aminocyclohexyl)imidazo[1,2-b]pyridazine-2-carboxamide] as the molecule, how does the pIC50 read?
**A.** < 4.00

**Q.** With CC(NC(=O)c1n[nH]c2ccccc12)C1CCN(C(=O)[C@H](C)N)CC1 (stereo partly drawn) [compound 312, N-(1-(1-(L-alanyl)piperidin-4-yl)ethyl)-1H-indazole-3-carboxamide] as the molecule, how does the pIC50 read?
**A.** < 4.00

**Q.** How did the pIC50 turn out when CC(NC(=O)c1cccc2c1CC(=O)N2)C1CCN(C(=O)[C@H](C)N)CC1 (stereo partly drawn) [compound 399, N-(1-(1-(L-alanyl)piperidin-4-yl)ethyl)-2-oxoindoline-4-carboxamide] was run?
**A.** < 4.00

**Q.** Cn1ccc(C(=O)N[C@H]2CC[C@H](NC(=O)CCN)CC2)n1 [compound 349, N-((1r,4r)-4-(3-aminopropanamido)cyclohexyl)-1-methyl-1H-pyrazole-3-carboxamide] was tested. Which pIC50 did it give?
**A.** < 4.00

**Q.** With CC(NC(=O)Cc1cncnc1)C1CCN(C(=O)[C@H](C)N)CC1 (stereo partly drawn) [compound 315, N-(1-(1-(L-alanyl)piperidin-4-yl)ethyl)-2-(pyrimidin-5-yl)acetamide] as the molecule, how does the pIC50 read?
**A.** < 4.00

**Q.** With CC(NC(=O)c1ccc(O)cn1)C1CCN(C(=O)[C@H](C)N)CC1 (stereo partly drawn) [compound 310, N-(1-(1-(L-alanyl)piperidin-4-yl)ethyl)-5-hydroxypicolinamide] as the molecule, how does the pIC50 read?
**A.** < 4.00

**Q.** With CC(NC(=O)c1cccc(F)n1)C1CCN(C(=O)[C@H](C)N)CC1 (stereo partly drawn) [compound 265, N-(1-(1-(L-alanyl)piperidin-4-yl)ethyl)-6-fluoropicolinamide] as the molecule, how does the pIC50 read?
**A.** < 4.00

same assay, conditions: read-out: SMYD3 Biochem IC50 (μM)*

**Q.** For Cc1nc(-c2ccc(C(=O)NC(C)C3CCN(C(=O)[C@H](C)N)CC3)cc2)no1 (stereo partly drawn) [compound 179, N-(1-(1-(L-alanyl)piperidin-4-yl)ethyl)-4-(5-methyl-1,2,4-oxadiazol-3-yl)benzamide], which IC50 is on record?
**A.** > 100 µM

**Q.** Which IC50 does the source give for Cc1cc2[nH]c(C(=O)N[C@H]3CC[C@H](N)CC3)cc2o1 [compound 57, N-((1r,4r)-4-aminocyclohexyl)-2-methyl-4H-furo[3,2-b]pyrrole-5-carboxamide] here?
**A.** 134 µM

**Q.** How did the IC50 turn out when CC(=O)Nc1ccc(S(=O)(=O)N2CCC(NC(=O)c3cn(C)cn3)CC2)cc1 [compound 9, N-(1-((4-acetamidophenyl)sulfonyl)piperidin-4-yl)-1-methyl-1H-imidazole-4-carboxamide] was run?
**A.** 60.5 µM

**Q.** For N[C@H]1CC[C@H](NC(=O)c2ccc3c(c2)OCC(=O)N3)CC1 [compound 19, N-((1r,4r)-4-aminocyclohexyl)-3-oxo-3,4-dihydro-2H-benzo[b][1,4]oxazine-7-carboxamide], which IC50 is on record?
**A.** 102 µM

**Q.** For CC1(CNC(=O)c2ccc3c(c2)CC(=O)N3)CCNCC1 [compound 121, N-((4-methylpiperidin-4-yl)methyl)-2-oxoindoline-5-carboxamide], which IC50 is on record?
**A.** 65.7 µM

**Q.** For CCOC(=O)C(NC(=O)c1ccc2c(c1)CC(=O)N2)C1CCNCC1 (stereo not drawn) [compound 122, ethyl 2-(2-oxoindoline-5-carboxamido)-2-(piperidin-4-yl)acetate], which IC50 is on record?
**A.** 42.3 µM

**Q.** CC(CN1CCCC1)C(=O)NC(c1ccccc1)C1CCNCC1 (stereo not drawn) [compound 109, 2-methyl-N-(phenyl(piperidin-4-yl)methyl)-3-(pyrrolidin-1-yl)propanamide] was tested. Which IC50 did it give?
**A.** 79 µM
